Assay results published in patent US20250334558A1, “TOTAL HYDROGEN SULFIDE QUANTIFICATION” (The Cleveland Clinic Foundation, priority 2022, published 2025).
Residues, ends and D or L forms follow the SMILES beside them.

Assays:
[1] = Long term (one year) stability study of H2S and thiols in human plasma samples; conditions: n = 3
Experimental: (§1) Long-term stability of H2S and thiols in plasma samples was determined by “accelerated” stability. Samples were incubated in gas tight vials at 60° C. Each day, for five days (and after 1 year), an aliquot was cooled on ice, derivatized, and then analyzed by mass spectrometry. Stability was reported as the mean of the daily stability assay calculated across the five days. The long-term stability was calculated using the following formula: % Stability=(Ct/C0)×100; where C0 is the initial concentration of thiols and Ct is the concentration after each day of incubation. To determine whether the analyte was stable following derivatization, samples from 3 QC levels were kept at auto-sampler temperature and tested for five days. Stability was reported as the mean of the daily stability results for five days using the following formula: % Stability=(Ct/C0)×100; where C0 is the initial concentration of thiols and Ct is the concentration after each day of incubation.
Stability The stability of H2S and thiols in samples was determined through an accelerated stability study of pooled serum samples (Quality Control (QC) samples at 3 concentration levels) analyzed in triplicates at 60° C. for 5 days and compared with fresh matrix that was immediately processed. […] Extract stability was also tested by reanalyzing QC extracts after ≥3 days at 10° C. (auto-sampler temperature) and quantifying against a freshly analyzed sample.

[2] = after 5 freeze-thaw cycles, serum
Experimental: Stability of samples containing H2S and thiols For stability analysis a fresh serum sample was divided into 5 equal aliquots and frozen at −80° C. The aliquots were thawed and analyzed 24 hours later. This process was repeated five times. Percent recovery (stability) was calculated with the following formula: % Stability=100×Ct/C0; where C0 is the initial concentration (μM) of total H2S/thiols in the fresh serum sample and Ct is the concentration after each freeze-thaw cycle. The concentration mean from the 5 freeze-thaw cycles was calculated along with the standard deviation for each compound.

[3] = pooled serum QC samples, 60° C., 5 days, vs fresh matrix
Experimental: as §1
Stability The stability of H2S and thiols in samples was determined through an accelerated stability study of pooled serum samples (Quality Control (QC) samples at 3 concentration levels) analyzed in triplicates at 60° C. for 5 days and compared with fresh matrix that was immediately processed. […] (auto-sampler temperature) and quantifying against a freshly analyzed sample.

[4] = Storage stability of synthesized isotope labelled internal standard [^34S]Na2S and stock master solutions at −80° C.; conditions: Storage at −80° C.
Experimental: The internal standard stock solution was prepared by weighing anhydrous [^34S]Na2S (in glovebox under nitrogen atmosphere) and dissolving it in ammonium bicarbonate buffer (pH 10).
IS working solutions were diluted 10-fold immediately before use.
The recovery of IS for H2S and other monitored thiols was examined in human plasma by comparing analyte peak areas in pooled human serum versus vehicle.

| SMILES | Stability (%) = 100 × Ct/C0 ([1]; QC1, one year storage) [%] | Stability (%) = 100 × Ct/C0 ([1]; QC2, one year storage) [%] | Stability (%) = 100 × Ct/C0 ([1]; QC3, one year storage) [%] | other results |
| --- | --- | --- | --- | --- |
| N[C@@H](CCS)C(=O)O [Homocysteine] | 90.3 ± 5.6 | 101.3 ± 5.3 | 108.2 ± 6.9 | – |
| S [H2S, Hydrogen sulfide] | 98.4 ±2.2 | 97.4 ± 4.3 | 99.0 ± 3.9 | Freeze-thaw stability [2]: 98.6%; Sample stability (accelerated) [3]: 94.4% |
| N[C@@H](CS)C(=O)NCC(=O)O [Cysteinylglycine] | 91.9 ± 6.5 | 99.0 ± 3.5 | 94.4 ± 4.9 | – |
| [Na+].[Na+].[S-2] [[^34S]Na2S, ^34S isotope-labeled sodium sulfide] | – | – | – | % of peak area, storage stability ([4]; 1 Week): 100.0 ± 9.7%; % of peak area, storage stability ([4]; 2 Week): 101.3 ± 8.5%; % of peak area, storage stability ([4]; 3 Week): 97.3 ± 14.3%; % of peak area, storage stability ([4]; 4 Week): 101.1 ± 8.1%; % of peak area, storage stability ([4]; 5 Week): 96.1 ± 4.5%; % of peak area, storage stability ([4]; 6 Week): 101.1 ± 8.1%; % of peak area, storage stability ([4]; 7 Week): 103.7 ± 12.3%; % of peak area, storage stability ([4]; 8 Week): 98.8 ± 19.9% |
| N[C@@H](CCC(=O)O)C(=O)N[C@@H](CS)C(=O)O [Glutamylcysteine] (H-Glu-Cys-OH) | 95.6 ± 1.3 | 96.2 ± 3.5 | 94.3 ± 6.9 | – |
| N[C@@H](CCC(=O)N[C@@H](CS)C(=O)NCC(=O)O)C(=O)O [Glutathione] | 82.1 ± 4.9 | 95.8 ± 5.5 | 99.0 ± 6.1 | – |
| N[C@@H](CS)C(=O)O [Cysteine] | 96.9 ± 6.0 | 96.6 ± 3.2 | 100.5 ± 1.1 | – |
